Experiment [1] has as its system endogenous rat L1 promoter region (5′UTR). Put plainly: ChIP of MeCP2 and Sox2 on the endogenous rat L1 promoter region in NSCs. Type of experiment: cell-based. The settings on record: for MeCP2 ChIP signal / association to the L1 promoter region: 500 ng/ml for 4 days. The source says:
ChIP assay was done essentially following the manufacturer's protocol using a ChIP assay kit (Upstate). Antibodies used were anti-MeCP2 (Upstate), Sox2 (Chemicon), and IgG. Purified DNA was amplified by PCR using primers for the rat L1 5′UTR promoter region (L1.3, accession # X03095).
(§1) Using chromatin immunoprecipitation (ChIP), high levels of MeCP2 were detected in association with the L1 promoter region (i.e., 5′UTR) in rat NSCs compared to differentiated neurons (FIG. 1F). To rule out differences in protein abundance that may differently influence ChIP amplification, western blot analysis was performed using lysates from cells that had undergone neuronal differentiation. […] Next, it was asked if releasing of MeCP2 from the methylated DNA would increase its association with Sox2 in solution. The Co-IP experiment in the presence of the 5-Aza was then repeated. […] It may be that both configurations can occur on the same L1 promoter region or each possibility is a L1 element sequence-dependent event.

For the next experiment, the system named is MeCP2 and Sox2. Put plainly: Co-immunoprecipitation between MeCP2 and Sox2. Type of experiment: cell-based, rat. To be noted: in the presence of 5-Aza. Here is the method: Immunofluorescence for EGFP was performed as previously described (11). A non-transgenic animal was used to measure the background fluorescence in the brain and to establish a threshold for detection. Western blotting was carried out using standard protocols with the following antibodies: mouse anti-Actin (1/500, Ambion), rabbit anti-MeCP2 (1/1000, Imgenex or Upstate), and rabbit anti-Sox2 (1/100, Chemicon). All secondary antibodies were purchased from Jackson ImmunoResearch. For co-immunoprecipitation, the Nuclear Complex Co-IP kit (Active Motif) was used, following the manufacturer's protocol with the highest stringency buffers.
as §1

The next experiment relates to L1 5′UTR CpG islands. Put plainly: Bisulfite analysis of L1 5′UTR DNA methylation in NSCs. Format: cell-based, rat. The settings on record: treatment for 4-days. As to the method:
Genomic DNA from NSCs was isolated using standard phenol-chloroform extraction techniques. Subsequently, DNA was digested with the restriction enzyme EcoRI and the bisulfite conversion reaction was performed using the Epitect kit (Quiagen), following manufacturer's instructions. Primers were designed based on the rat L1 sequence Mlvi2, using Methyl Primer Express; primers for L1 converted 5′UTR region: forward 5-[…]-3′ (SEQ ID NO:1) and reverse 5′-[…]-3′ (SEQ ID NO:2). PCR products were cloned into TOPO TA 2.1 plasmids (Invitrogen) and 40 bacterial colonies were analyzed by sequencing.

Regarding `Nc1ncn([C@@H]2O[C@H](CO)[C@@H](O)[C@H]2O)c(=O)n1` [5-Azacytidine], the “MeCP2 ChIP signal / association to the L1 promoter region” value was “lost” in experiment [1] and “reduced” in experiment [1] (listed as 5-Azacitidine). Moreover, in experiment [1] (5-Aza treatment), the “Sox2 binding to the L1 promoter” value is “did riot prevent”. The “amount of MeCP2 in association with Sox2 in solution (Co-IP)” value in the experiment with MeCP2 and Sox2 is “increased”. The “removal of methyl radicals from the 5′UTR L1 region (bisulfite)” value in the experiment with L1 5′UTR CpG islands is “completely removed”.

For the origin of these results see patent publication US20140038896A1, “Retroelements and mental disorders and methods of measuring L1 retrotransposition” (Salk Institute for Biological Studies, priority 2009, published 2014).
